Laboratory results reported in ChEMBL document CHEMBL2074014, “Role of blood-brain barrier organic anion transporter 3 (OAT3) in the efflux of indoxyl sulfate, a uremic toxin: its involvement in neurotransmitter metabolite clearance from the brain” (J Neurochem, 2002).

How the values were obtained:
[1] = target: T1, Organic anion transporter 3 (OAT3) (Rattus norvegicus, UniProt Q9R1U7); test: TP_TRANSPORTER: inhibition of Indoxyl sulfate uptake (Indoxyl sulfate: 2 uM, 5-Methoxytryptophol: 1000 uM) in Xenopus laevis oocytes; assay type: functional, cell-based, Oocyte; design: scale not given: the % may be the effect or the level left; conditions: probe Indoxyl sulfate, read-out: Activity
T1 sequence (Q9R1U7 whole entry): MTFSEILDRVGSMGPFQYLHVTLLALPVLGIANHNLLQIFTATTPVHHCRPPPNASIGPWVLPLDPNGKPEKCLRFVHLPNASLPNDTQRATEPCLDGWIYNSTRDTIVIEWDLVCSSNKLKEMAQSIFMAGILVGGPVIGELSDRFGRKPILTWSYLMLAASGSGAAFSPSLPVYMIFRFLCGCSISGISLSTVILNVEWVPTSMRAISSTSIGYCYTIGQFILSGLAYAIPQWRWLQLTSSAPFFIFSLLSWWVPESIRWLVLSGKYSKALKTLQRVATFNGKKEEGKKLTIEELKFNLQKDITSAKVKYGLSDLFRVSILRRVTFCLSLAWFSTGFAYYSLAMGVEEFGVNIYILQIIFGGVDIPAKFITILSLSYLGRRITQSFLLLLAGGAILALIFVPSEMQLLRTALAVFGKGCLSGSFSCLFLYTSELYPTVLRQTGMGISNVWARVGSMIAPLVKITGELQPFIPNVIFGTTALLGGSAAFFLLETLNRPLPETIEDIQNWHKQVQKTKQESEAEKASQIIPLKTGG

[2] = target: T1, Organic anion transporter 3 (OAT3); test: TP_TRANSPORTER: inhibition of Indoxyl sulfate uptake (Indoxyl sulfate: 2 uM, 3-Methoxy-4-hydroxymandelic acid: 1000 uM) in Xenopus laevis oocytes; assay type: functional, cell-based, Oocyte; design: scale not given: the % may be the effect or the level left; conditions: probe Indoxyl sulfate, read-out: Activity
[3] = target: T1, Organic anion transporter 3 (OAT3); test: TP_TRANSPORTER: inhibition of Indoxyl sulfate uptake (Indoxyl sulfate: 2 uM, 3,4-Dihydroxymandelic acid: 1000 uM) in Xenopus laevis oocytes; assay type: functional, cell-based, Oocyte; design: scale not given: the % may be the effect or the level left; conditions: probe Indoxyl sulfate, read-out: Activity
[4] = target: T1, Organic anion transporter 3 (OAT3); test: TP_TRANSPORTER: inhibition of Indoxyl sulfate uptake (Indoxyl sulfate: 2 uM, 5-Hydroxyindole acetic acid: 1000 uM) in Xenopus laevis oocytes; assay type: functional, cell-based, Oocyte; design: scale not given: the % may be the effect or the level left; conditions: probe Indoxyl sulfate, read-out: Activity
[5] = target: T1, Organic anion transporter 3 (OAT3); test: TP_TRANSPORTER: inhibition of Indoxyl sulfate uptake (Indoxyl sulfate: 2 uM, 3,4-Dihydroxyphenylacetic acid: 1000 uM) in Xenopus laevis oocytes; assay type: functional, cell-based, Oocyte; design: scale not given: the % may be the effect or the level left; conditions: probe Indoxyl sulfate, read-out: Activity
[6] = target: T1, Organic anion transporter 3 (OAT3); test: TP_TRANSPORTER: inhibition of Indoxyl sulfate uptake (Indoxyl sulfate: 2 uM, ACV: 1000 uM) in Xenopus laevis oocytes; assay type: functional, cell-based, Oocyte; design: scale not given: the % may be the effect or the level left; conditions: probe Indoxyl sulfate, read-out: Activity
[7] = target: T1, Organic anion transporter 3 (OAT3); test: TP_TRANSPORTER: inhibition of Indoxyl sulfate uptake (Indoxyl sulfate: 2 uM, Baclofen: 1000 uM) in Xenopus laevis oocytes; assay type: functional, cell-based, Oocyte; design: scale not given: the % may be the effect or the level left; conditions: probe Indoxyl sulfate, read-out: Activity
[8] = target: T1, Organic anion transporter 3 (OAT3); test: TP_TRANSPORTER: inhibition of Indoxyl sulfate uptake (Indoxyl sulfate: 2 uM, Benzoic acid: 1000 uM) in Xenopus laevis oocytes; assay type: functional, cell-based, Oocyte; design: scale not given: the % may be the effect or the level left; conditions: probe Indoxyl sulfate, read-out: Activity
[9] = target: T1, Organic anion transporter 3 (OAT3); test: TP_TRANSPORTER: inhibition of Indoxyl sulfate uptake (Indoxyl sulfate: 2 uM, Cefazolin: 1000 uM) in Xenopus laevis oocytes; assay type: functional, cell-based, Oocyte; design: scale not given: the % may be the effect or the level left; conditions: probe Indoxyl sulfate, read-out: Activity
[10] = target: T1, Organic anion transporter 3 (OAT3); test: TP_TRANSPORTER: inhibition of Indoxyl sulfate uptake (Indoxyl sulfate: 2 uM, HVA: 1000 uM) in Xenopus laevis oocytes; assay type: functional, cell-based, Oocyte; design: scale not given: the % may be the effect or the level left; conditions: probe Indoxyl sulfate, read-out: Activity
[11] = target: T1, Organic anion transporter 3 (OAT3); test: TP_TRANSPORTER: inhibition of Indoxyl sulfate uptake (Indoxyl sulfate: 2 uM, Imidazoleacetic acid: 1000 uM) in Xenopus laevis oocytes; assay type: functional, cell-based, Oocyte; design: scale not given: the % may be the effect or the level left; conditions: probe Indoxyl sulfate, read-out: Activity
[12] = target: T2, Organic anion transporter 3 (Rattus norvegicus, UniProt Q9R1U7); test: TP_TRANSPORTER: inhibition of Indoxyl sulfate uptake (Indoxyl sulfate: 2 uM, Ketoprofen: 1000 uM) in Xenopus laevis oocytes; assay type: functional, cell-based; design: scale not given: the % may be the effect or the level left; conditions: oocyte
T2 sequence (Q9R1U7 whole entry): T1 sequence (Q9R1U7 whole entry)

[13] = target: T1, Organic anion transporter 3 (OAT3); test: TP_TRANSPORTER: inhibition of Indoxyl sulfate uptake (Indoxyl sulfate: 2 uM, Melatonin: 1000 uM) in Xenopus laevis oocytes; assay type: functional, cell-based, Oocyte; design: scale not given: the % may be the effect or the level left; conditions: probe Indoxyl sulfate, read-out: Activity
[14] = target: T1, Organic anion transporter 3 (OAT3); test: TP_TRANSPORTER: inhibition of Indoxyl sulfate uptake (Indoxyl sulfate: 2 uM, 6-mercaptopurine: 1000 uM) in Xenopus laevis oocytes; assay type: functional, cell-based, Oocyte; design: scale not given: the % may be the effect or the level left; conditions: probe Indoxyl sulfate, read-out: Activity
[15] = target: T2, Organic anion transporter 3; test: TP_TRANSPORTER: inhibition of Indoxyl sulfate uptake (Indoxyl sulfate: 2 uM, Valproic acid: 1000 uM) in Xenopus laevis oocytes; assay type: functional, cell-based; conditions: oocyte

COc1ccc2[nH]cc(CCO)c2c1
activity at 1000 µM [1]: 26.8%

COc1cc([C@@H](O)C(=O)O)ccc1O
activity at 1000 µM [2]: 27.3%

O=C(O)[C@H](O)c1ccc(O)c(O)c1
activity at 1000 µM [3]: 33.5%

O=C(O)Cc1c[nH]c2ccc(O)cc12
activity at 1000 µM [4]: 18.7%

O=C(O)Cc1ccc(O)c(O)c1 [3,4-DIHYDROXYPHENYLACETIC ACID]
activity at 1000 µM [5]: 8.86%

Nc1nc2c(ncn2COCCO)c(=O)[nH]1 [ACYCLOVIR]
activity at 1000 µM [6]: 7.66%

NCC(CC(=O)O)c1ccc(Cl)cc1 (stereo not given) [BACLOFEN]
activity at 1000 µM [7]: 25.7%

O=C(O)c1ccccc1 [BENZOIC ACID]
activity at 1000 µM [8]: 71.6%

Cc1nnc(SCC2=C(C(=O)O)N3C(=O)[C@@H](NC(=O)Cn4cnnn4)[C@H]3SC2)s1 [CEFAZOLIN]
activity at 1000 µM [9]: 13.6%

COc1cc(CC(=O)O)ccc1O [HOMOVANILLIC ACID]
activity at 1000 µM [10]: 29.9%

O=C(O)Cc1ncc[nH]1 [IMIDAZOLEACETIC ACID]
activity at 1000 µM [11]: 69.4%

CC(C(=O)O)c1cccc(C(=O)c2ccccc2)c1 (stereo not given) [KETOPROFEN]
Activity [12]: 22.3%

COc1ccc2[nH]cc(CCNC(C)=O)c2c1 [MELATONIN]
activity at 1000 µM [13]: 30.9%

Sc1ncnc2nc[nH]c12 [MERCAPTOPURINE ANHYDROUS]
activity at 1000 µM [14]: 19.1%

CCCC(CCC)C(=O)O [VALPROIC ACID]
Activity [15]: is not an inhibitor [-]
